Assay results taken from patent US9855270B2, “Methods and compositions for modulating estrogen receptor mutants” (priority 2014, dated 2018).

Test system: mutant ERα
Settings: 24 hr; estrogen-depleted medium containing 100 ng/ml Dox; absence of E2

CC/C(=C(\c1ccccc1)c1ccc(OCCN(C)C)cc1)c1ccccc1 [tamoxifen]
mutant ERα degradation: not
